# Experimental data taken from patent publication EP0384380A2, “Novel peptide derivatives and their pharmaceutical use” (JAPAN TOBACCO INC., priority 1989, dated 1990).
# Read-outs that look alike come from different tables or passages of the source.
# Legend:
# Type in all cases: in vivo
# [1] = system: ICR male mice; test: Anti-chlorpromazine action (locomotor stimulant action); details: SC, mice given chlorpromazine HCl 5 mg/kg s.c., test compound one hour later, estimated from regression line; for ED (3000 locomotor counts): Mus musculus, 2 h, read-out: Concentration of test compound necessary for inducing 3000 count of automatism quantity in 2 hours
# Procedure: Anti-chlorpromazine action (Locomotor stimulant action)
# ICR male mice weighing 35 - 40 g (four animals per group) were subcutaneously administered with chlorpromazine HCI at the dose of 5 mg/kg and immediately set in the automatic locomotor-measuring apparatus (AUTOMEX). One hour later, the test compound dissolved in saline was subcutaneously administered, and the locomotor activity was measured every 15 minutes for 120 minutes. The total locomotor activity during the period of 120 minutes was calculated and the regression line was estimated based on the method of least squares, from which the amount of the test compound necessary for inducing 3000 locomotor-count was estimated (Table 2).
# [2] = system: Wistar male rats; test: Flexor reflex in spinalized rats; design: key to Area below the reflex amplitude linking line: area under % amplitude vs. time line over 60 min (pre-dose = 100%); details: pre-dose amplitude = 100%; for response vs control in vivo at 0.1 mg/kg / response vs control in vivo at 0.3 mg/kg: Rattus norvegicus; for Area below the reflex amplitude linking line: covering 60 minutes
# Procedure: Flexor reflex in spinalized rats
# Wistar male rats (weighing 450 - 520 g) were anesthetized with ether, and the cervical part of spinal cord was exposed, into which a tracheal cannula was inserted. The vagus nerves were severed bilaterally at the cervical region. Thereafter, the cervical vertebra C1 segment was transected, and rapidly, artificial ventilation was given with the use of an artificial respirator (Shinano Factory 60 rpm. 4 ml/stroke). The rat was placed on a thermostated apparatus in which water thermostated at 37 C was circulated and fixed thereto at forelimbs, right hindlimb, tooth and tail. A venous cannula was inserted into the femoral vein in the right hindlimb and two needle electrodes were subcutaneously inserted into the left skin of the toe, and a piece of thread was attached to the limb with the edge of the thread bonded to a force-displacement - transducer. Tension of about 5 g was applied to the thread. Through the elctrodes, electric stimuli of 50 - 100 V were applied once per 30 seconds. The flexor reflex was recorded on the polygraph via a force-displacement transducer. After the reaction became constant in about one-hours' lapse for stabilization, the test compound dissolved in saline was intravenously administered. Thereafter, the reaction was recorded for 1 hour. In the data, taking the mean of the three reactions just before administration of the test compound for 100%, the reflex amplitude at 1-, 3-, 5-, 8-, 10-, 15-, 20-, 30-, 40-, 50- and 60- minutes' lapse after administration of the test compound were calculated. In Table 3, there are shown calculated area below the straight line linking the obtained reflex amplitude at the respective above-mentioned time covering 60 minutes in the case of administration of each test compounds at the dose of 0.1 mg/kg, and the reflex amplitude at 10- and 60-minutes' lapse after administration (Table 3).
# [3] = system: ICR male mice; test: Anti-reserpine action (antagonistic action against hypothermia); details: SC, mice given reserpine 5 mg/kg s.c., test compound 3 or 3.5 hours later, estimated from regression line; for ED (1 degC rise in body temperature): Mus musculus, 2 h, read-out: Concentration of test compound necessary for raising body temperature by 1 °C on the average for 120 minutes
# Procedure: Anti-reserpine action (Antagonistic action against hypothermia)
# ICR male mice weighing 35 - 40 g were subcutaneously administered with reserpine at the dose of 5 mg/kg. About 2 hours later, each of the mice was held by a mouse-holder, and a body temperature sensor was intrarectally inserted. Thereafter, the body temperature was automatically measured every 10 minutes. The test compound dissolved in saline was subcutaneously administered 3 or 3.5 hours after administration of reserpine. After the administration of the test compound, the body temperature was measured every 10 minutes over the period of 120 minutes. The area below the body temperature line during the period was calculated, from which the regression line was estimated based upon least square method, and estimated was the amount of the test compound necessary for raising the body temperature by 1 °C on the average for 120 minutes from that just before the administration of the test compound (Table 1).
# [4] = 10 min, intravenous administration at the dose of 0.1 mg/kg, read-out: Reflex amplitude (%) 10 min. after
# [5] = 10 min, intravenous administration at the dose of 0.3 mg/kg (footnote *), read-out: Reflex amplitude (%) 10 min. after
# [6] = intravenous administration at the dose of 0.1 mg/kg
# [7] = intravenous administration at the dose of 0.3 mg/kg (footnote *)
# [8] = 1 h, intravenous administration at the dose of 0.1 mg/kg, read-out: Reflex amplitude (%) 60 min. after
SMILES,ED (3000 locomotor counts) [1] [mg/kg],"response vs control in vivo at 0.1 mg/kg [2, 4] [%]","response vs control in vivo at 0.3 mg/kg [2, 5] [%]","Area below the reflex amplitude linking line [2, 6]","Area below the reflex amplitude linking line [2, 7]",ED (1 degC rise in body temperature) [3] [mg/kg],Concentration of test compound necessary for inducing 3000 count of automatism quantity in 2 hours [1] [mg/kg],"Reflex amplitude (%) 10 min. after [2, 6] [%]","Reflex amplitude (%) 60 min. after [2, 6] [%]",Concentration of test compound necessary for raising body temperature by 1 °C on the average for 120 minutes [3] [mg/kg],"response vs control in vivo at 0.1 mg/kg [2, 8] [%]","response vs control in vivo at 0.3 mg/kg ([2]; 1 h, intravenous administration at the dose of 0.3 mg/kg (footnote *), read-out: Reflex amplitude (%) 60 min. after) [%]"
"C[C@H]1CC(=O)C[C@H]1C(=O)N[C@@H](Cc1c[nH]cn1)C(=O)N1CCC[C@H]1C(N)=O (mixture of isomers) [Compound 19, N^α-(cis-2-Methyl-4-oxocyclopentanecarbonyl)-L-histidyl-L-prolinamide]",0.54,138,250,11860,19114,0.14,,,,,,
"C[C@@H]1CC(=O)C[C@H]1C(=O)N[C@@H](Cc1c[nH]cn1)C(=O)N1CCC[C@H]1C(N)=O (mixture of isomers) [Compound 20, N^α-(trans-2-Methyl-4-oxocyclopentanecarbonyl)-L-histidyl-L-prolinamide]",1.3,105,129,6317,10355,0.27,,,,,,
"NC(=O)[C@@H]1CCCN1C(=O)[C@H](Cc1c[nH]cn1)NC(=O)[C@H]1NC(=O)C[C@@H]1c1ccccc1 (relative stereo) [Compound 10, N^a-(trans-3-Phenylpyroglutamyl)-L-histidyl-L-prolinamide]",,,,16593,,,1.89,242.7,329.2,0.53,,
"NC(=O)[C@@H]1CCCN1C(=O)[C@H](Cc1c[nH]cn1)NC(=O)[C@H]1NC(=O)C[C@H]1c1ccccc1 (relative stereo) [Compound 11, N^α-(cis-3-Phenylpyroglutamyl)-L-histidyf-L-prolinamide]",,,,11321,,,1.89,140.4,240.8,0.28,,
"C[C@@H]1CC(=O)N[C@@H]1C(=O)N[C@@H](Cc1c[nH]cn1)C(=O)N1CCC[C@H]1C(N)=O [Compound 1, N^α-(cis-3-Methylpyroglutamyt)-L-histidyl-L-prolinamide]",0.51,159,,12970,,0.3,,,,,,
"C[C@H]1CC(=O)N[C@@H]1C(=O)N[C@@H](Cc1c[nH]cn1)C(=O)N1CCC[C@H]1C(N)=O [Compound 2, N^α-(trans-3-Methylpyroglutamyl)-L-histidyl-L-prolinamide]",12.9,126,,7077,,1.11,,,,,,
"C[C@@H]1CC(=O)N[C@@H]1C(=O)N[C@@H](Cc1c[nH]cn1)C(=O)N1CSC[C@H]1C(N)=O [Compound 3, 3-[N^α-(cis-3-Methylpyroglutamyt)-L-histidyl]-L-thiazolidine-4-carboxamide]",0.47,190,,13811,,0.2,,,,,278,
"C[C@H]1CC(=O)N[C@@H]1C(=O)N[C@@H](Cc1c[nH]cn1)C(=O)N1CSC[C@H]1C(N)=O [Compound 4, 3-[N^α-(trans-3-Methylpyroglutamyl)-L-histidyl]-L-thiazolidine-4-carboxamide]",0.63,143,,9404,,0.34,,,,,164,
"C[C@@H]1CC(=O)O[C@@H]1C(=O)N[C@@H](Cc1c[nH]cn1)C(=O)N1CCC[C@H]1C(N)=O [Compound 5, N^α-[(2S,3R)-Tetrahydro-3-methyl-5-oxo-2-furancarbonyl]-L-histidyl-L-prolinamide]",0.7,132,,9221,,0.12,,,,,,
"NC(=O)[C@@H]1CCCN1C(=O)[C@H](Cc1c[nH]cn1)NC(=O)C1CCC(=O)C1 (stereo partly drawn) [Compound 13, N^α-(3-Oxocyclopentanecarbonyl)-L-histidyl-L-prolinamide]",1.03,110,,8572,,0.71,,,,,,
"NC(=O)[C@@H]1CCCN1C(=O)[C@H](Cc1c[nH]cn1)NC(=O)[C@@H]1CCC(=O)C1 [Compound 16, N^a-[(1 R)-3-Oxocyclopentanecarbonyl]-L-histidyl-L-prolinamide]",0.88,152,,12016,,0.12,,,,,,
"CC1(C)CC(=O)CC1C(=O)N[C@@H](Cc1c[nH]cn1)C(=O)N1CCC[C@H]1C(N)=O (stereo partly drawn) [Compound 21, N^α-(2,2-Dimethyl-4-oxocyclopentanecarbonyl)-L-histidyl-L-prolinamide]",0.83,115,170,7186,14294,0.18,,,,,,
"NC(=O)C1CCCN1C(=O)C(Cc1c[nH]cn1)NC(=O)C1CCC(=O)O1 (centres unmarked) [DN1417, reference compound]",4.34,,114,,8152,2.06,,,,,,163
"NC(=O)[C@@H]1CCCN1C(=O)[C@H](Cc1c[nH]cn1)NC(=O)[C@@H]1CCC(=O)N1 [TRH, L-pyroglutamyl-L-histidyl-L-prolinamide, reference compound]",6.82,118,,,,,,,,,,
